These results are taken from patent US11324829B2, “Antiseptic agent comprising meglumine or salt thereof” (priority 2016, dated 2022).

For the experiment, the system named is E. coli, P. aeruginosa, S. aureus, C. albicans, A. brasiliensis. Kind of experiment: Evaluation against category IA standard, Preservatives-Effectiveness Tests, Japanese Pharmacopoeia 16th edition (all 5 strains). The settings on record: summary of Tables 1 to 3, against each of the strains. It counts as cell-based. On the procedure:
The following strains were used as inoculum strains.
A test sample of each formulation was inoculated with an inoculum microorganism liquid so that the concentration of the microorganism liquid in the test sample was 10^5 to 10^6 cells/mL (for each of the 5 strains). Specifically, an inoculum microorganism liquid was prepared for each strain at 10^7 to 10^8 cfu/mL, and inoculated into a test sample of each of Examples 1 to 11 and Comparative Example 1, and uniformly mixed to obtain a sample, so that the inoculum microorganism liquid was at 10^5 to 10^6 cfu/mL. These samples were stored at 20 to 25° C. under a light shielding condition. At sampling points (after 14 days or 28 days), 1 mL of each sample was withdrawn with a micropipette to measure a viable cell count. […]
The test results in Tables 1 to 3 are each shown as the common logarithm value of the ratio (B/A) of a cell count (B) at the time of inoculation to a cell count (A) of viable cells. For example, the value “1” means that the measured viable cell count is as low as 10% of the inoculum cell count. Further, the formulations were evaluated whether they satisfied the standard of “category IA” according to the informative “Preservatives-Effectiveness Tests” defined in The Japanese Pharmacopoeia, 16th edition.

Consider `CNC[C@H](O)[C@@H](O)[C@H](O)[C@H](O)CO` [meglumine, Meglumine], for which the “Antiseptic effect (in words)” value is “alone has an antiseptic effect”.
